Tests used:
[1] = test system: brains, heart, liver, muscle, and DRG of the NHPs; assay: Maturation of TTM-001 and TTM-002 capsids, NGS enrichment in NHP tissues; type: in vivo; settings: relative to AAV9 control
Outline: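 Variants carry mutations within and flanking the loop IV peptide insert: positions 450–466 were triplet-randomized, while positions 449–466 received low-frequency point mutations. The combined pool went into two NHPs, and each peptide was scored by NGS enrichment ratio against AAV9.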

brain = assay: Matured TTM-001 and TTM-002 variants, NGS enrichment in mouse brain; type: in vivo, mice; settings: relative to AAV9 control
[2] = NGS fold-enrichment of RNA, NHP brain
[3] = NGS fold-enrichment, DRG of NHPs
[4] = NGS fold-enrichment, NHP liver DNA
[5] = NGS fold-enrichment, NHP liver RNA
[6] = NGS fold-enrichment, NHP muscle
[7] = NGS fold-enrichment, RNA, brain of NHPs
[8] = NGS fold-enrichment, heart of NHPs
[9] = NGS fold-enrichment, liver DNA of NHPs
[10] = NGS fold-enrichment, liver RNA of NHPs
[11] = NGS fold-enrichment, muscle of NHPs
[12] = NGS fold-enrichment, brain of mice
[13] = NGS fold-enrichment, mouse brain
[14] = NGS fold-enrichment of matured AAV capsid variants, NHP brain, RNA

Row | Sequence | Fold Enrichment relative to AAV9, Brain (NHP) [1, 2] [fold] | Fold Enrichment relative to AAV9, DRG (NHP) [1, 3] [fold] | Fold Enrichment relative to AAV9, DRG (NHP) ([1]; NGS fold-enrichment, NHP DRG) [fold] | Fold Enrichment relative to AAV9, Heart (NHP) ([1]; NGS fold-enrichment, NHP heart) [fold] | Fold Enrichment relative to AAV9, Liver DNA (NHP) [1, 4] [fold] | Fold Enrichment relative to AAV9, Liver RNA (NHP) [1, 5] [fold] | Fold Enrichment relative to AAV9, Muscle (NHP) [1, 6] [fold] | Fold Enrichment relative to AAV9, Brain (NHP) [1, 7] [fold] | Fold Enrichment relative to AAV9, Heart (NHP) [1, 8] [fold] | Fold Enrichment relative to AAV9, Liver DNA (NHP) [1, 9] [fold] | Fold Enrichment relative to AAV9, Liver RNA (NHP) [1, 10] [fold] | Fold Enrichment relative to AAV9, Muscle (NHP) [1, 11] [fold] | Fold Enrichment relative to AAV9, Brain (Mouse) (brain; [12]) [fold] | Fold Enrichment relative to AAV9, Brain (Mouse) (brain; [13]) [fold] | Fold Enrichment relative to AAV9, Brain (NHP) [1, 14] [fold] | Fold Enrichment relative to AAV9, DRG (NHP) ([1]; NHP DRG) [fold] | Fold Enrichment relative to AAV9, Heart (NHP) ([1]; NHP heart) [fold] | Fold Enrichment relative to AAV9, Liver DNA (NHP) ([1]; NHP liver, DNA) [fold] | Fold Enrichment relative to AAV9, Liver RNA (NHP) ([1]; NHP liver, RNA) [fold] | Fold Enrichment relative to AAV9, Muscle (NHP) ([1]; NHP muscle) [fold] | also measured
1 | KTFHGSGSPHSKTQNQQT | 94.714 | 0.000 | 0.000 | 0.210 | 0.000 | 0.000 | 0.120 | 94.714 | 0.210 | 0.000 | 0.000 | 0.120 | 51.119 | 51.119 |  |  |  |  |  |  | 
2 | KTINGHDSPHKSRLNQPT | 92.883 |  | 0.000 | 0.070 | 1.075 | 0.904 | 0.050 |  |  |  |  |  |  | 5.598 |  |  |  |  |  |  | 
3 | KTINGSGSPHSKAQKVIT |  |  |  |  |  |  |  |  |  |  |  |  |  |  | 53.273 | 0.000 | 0.000 | 0.402 | 0.357 | 0.000 | Fold Enrichment relative to AAV9, Brain (Mouse) (brain; mouse brain): 95.147 fold
4 | KTINGHESPHKSGRSQQT | 97.106 |  | 0.000 | 3.329 | 0.181 | 0.000 | 0.022 |  |  |  |  |  |  | 9.378 |  |  |  |  |  |  | 
5 | KTINGSGSPHSKAQVPAT |  |  |  |  |  |  |  |  |  |  |  |  |  |  | 54.475 | 0.000 | 0.002 | 0.223 | 0.782 | 0.000 | Fold Enrichment relative to AAV9, Brain (Mouse) (brain; mouse brain): 137.743 fold
6 | KTINGSGSPHSKAQKIST |  |  |  |  |  |  |  |  |  |  |  |  |  |  | 50.285 | 0.000 | 0.000 | 0.302 | 0.108 | 0.088 | Fold Enrichment relative to AAV9, Brain (Mouse) (brain; mouse brain): 51.115 fold
7 | KTFNGSGSPHNKAQNHQT |  | 0.000 |  |  |  |  |  | 64.060 | 0.000 | 0.317 | 0.094 | 0.035 | 67.757 |  |  |  |  |  |  |  | 
8 | KTINGNGSPHSKAQNPLT | 75.269 | 0.000 | 0.000 | 0.000 | 0.000 | 0.366 | 0.000 | 75.269 | 0.000 | 0.000 | 0.366 | 0.000 | 53.583 | 53.583 |  |  |  |  |  |  | 
9 | KTNNGSGSPHSKAQNQQY |  | 0.000 |  |  |  |  |  | 68.530 | 0.040 | 0.059 | 0.000 | 0.000 | 82.656 |  |  |  |  |  |  |  | 
10 | KTERPSGSPHSKAQNQQT | 75.669 | 0.000 | 0.000 | 0.029 | 0.156 | 0.000 | 0.000 | 75.669 | 0.029 | 0.156 | 0.000 | 0.000 | 73.894 | 73.894 |  |  |  |  |  |  | 
11 | KTEITSGSPHSKAQNQQT | 79.620 | 0.000 | 0.000 | 0.163 | 0.074 | 0.332 | 0.000 | 79.620 | 0.163 | 0.074 | 0.332 | 0.000 | 76.686 | 76.686 |  |  |  |  |  |  | 
12 | KTINGSGSPHSKRLEQQT |  |  |  |  |  |  |  |  |  |  |  |  |  |  | 53.512 | 0.000 | 0.118 | 0.292 | 0.161 | 0.003 | Fold Enrichment relative to AAV9, Brain (Mouse) (brain; mouse brain): 71.704 fold
13 | KTINGSGSPHSKAQFMCT |  |  |  |  |  |  |  |  |  |  |  |  |  |  | 55.916 | 0.000 | 0.000 | 0.448 | 0.078 | 0.000 | Fold Enrichment relative to AAV9, Brain (Mouse) (brain; mouse brain): 81.959 fold
14 | KTINGSGSPHSKAHNQQR |  | 0.562 |  |  |  |  |  | 74.272 | 0.486 | 0.057 | 0.956 | 0.047 | 107.301 |  |  |  |  |  |  |  | 

From US20260250318A1, “COMPOSITIONS AND METHODS FOR CROSSING THE BLOOD BRAIN BARRIER” (VOYAGER THERAPEUTICS, INC., priority 2022, published 2026)
